Data from PMC7486443, “Generation of Phenothiazine with Potent Anti-TLK1 Activity for Prostate Cancer Therapy” (iScience, 2020).

Tests used:
Assay in all cases: biochemical
Parameters in all cases: DiscoverX KINOMEscan scanMAX competition binding panel, single concentration, percent of control; remaining binding: dose or concentration left out as unconfirmed
Conditions in all cases: KINOMEscan binding, percent of control; read-out: Table S4_SCANMAX REPORT - related to Fig. 1 / Percent Control
EGFR(L858R) = EGFR(L858R) (Homo sapiens, UniProt P00533, L858R)
PKAC-alpha = target: T1, PKAC-alpha (Homo sapiens, UniProt P17612)
T1 construct: gene PRKACA

RET = RET (Homo sapiens, UniProt P07949)
MET(M1250T) = MET(M1250T) (Homo sapiens, UniProt P08581, M1250T)
MAP4K5 = MAP4K5 (Homo sapiens, UniProt Q9Y4K4)
MARK2 = MARK2 (Homo sapiens, UniProt Q7KZI7)
WNK2 = WNK2 (Homo sapiens, UniProt Q9Y3S1)
[1] = target: T2, JAK3(JH1domain-catalytic) (Homo sapiens, UniProt P52333)
T2 construct: JH1domain-catalytic

FLT3(D835Y) = FLT3(D835Y) (Homo sapiens, UniProt P36888, D835Y)
[2] = target: T3, RPS6KA5(Kin.Dom.1-N-terminal) (Homo sapiens, UniProt O75582)
T3 construct: Kin.Dom.1-N-terminal

IKK-alpha = target: T4, IKK-alpha (Homo sapiens, UniProt O15111)
T4 construct: gene CHUK

HASPIN = HASPIN (Homo sapiens, UniProt Q8TF76)
AKT2 = AKT2 (Homo sapiens, UniProt P31751)
PRKG1 = PRKG1 (Homo sapiens, UniProt Q13976)
HPK1 = target: T5, HPK1 (Homo sapiens, UniProt Q92918)
T5 construct: gene MAP4K1

MKNK1 = MKNK1 (Homo sapiens, UniProt Q9BUB5)
EPHB1 = EPHB1 (Homo sapiens, UniProt P54762)
[3] = target: T6, RSK3(Kin.Dom.2-C-terminal) (Homo sapiens, UniProt Q15349)
T6 construct: gene RPS6KA2; Kin.Dom.2-C-terminal

Chain of EGFR(L858R) (P00533 whole entry L858R): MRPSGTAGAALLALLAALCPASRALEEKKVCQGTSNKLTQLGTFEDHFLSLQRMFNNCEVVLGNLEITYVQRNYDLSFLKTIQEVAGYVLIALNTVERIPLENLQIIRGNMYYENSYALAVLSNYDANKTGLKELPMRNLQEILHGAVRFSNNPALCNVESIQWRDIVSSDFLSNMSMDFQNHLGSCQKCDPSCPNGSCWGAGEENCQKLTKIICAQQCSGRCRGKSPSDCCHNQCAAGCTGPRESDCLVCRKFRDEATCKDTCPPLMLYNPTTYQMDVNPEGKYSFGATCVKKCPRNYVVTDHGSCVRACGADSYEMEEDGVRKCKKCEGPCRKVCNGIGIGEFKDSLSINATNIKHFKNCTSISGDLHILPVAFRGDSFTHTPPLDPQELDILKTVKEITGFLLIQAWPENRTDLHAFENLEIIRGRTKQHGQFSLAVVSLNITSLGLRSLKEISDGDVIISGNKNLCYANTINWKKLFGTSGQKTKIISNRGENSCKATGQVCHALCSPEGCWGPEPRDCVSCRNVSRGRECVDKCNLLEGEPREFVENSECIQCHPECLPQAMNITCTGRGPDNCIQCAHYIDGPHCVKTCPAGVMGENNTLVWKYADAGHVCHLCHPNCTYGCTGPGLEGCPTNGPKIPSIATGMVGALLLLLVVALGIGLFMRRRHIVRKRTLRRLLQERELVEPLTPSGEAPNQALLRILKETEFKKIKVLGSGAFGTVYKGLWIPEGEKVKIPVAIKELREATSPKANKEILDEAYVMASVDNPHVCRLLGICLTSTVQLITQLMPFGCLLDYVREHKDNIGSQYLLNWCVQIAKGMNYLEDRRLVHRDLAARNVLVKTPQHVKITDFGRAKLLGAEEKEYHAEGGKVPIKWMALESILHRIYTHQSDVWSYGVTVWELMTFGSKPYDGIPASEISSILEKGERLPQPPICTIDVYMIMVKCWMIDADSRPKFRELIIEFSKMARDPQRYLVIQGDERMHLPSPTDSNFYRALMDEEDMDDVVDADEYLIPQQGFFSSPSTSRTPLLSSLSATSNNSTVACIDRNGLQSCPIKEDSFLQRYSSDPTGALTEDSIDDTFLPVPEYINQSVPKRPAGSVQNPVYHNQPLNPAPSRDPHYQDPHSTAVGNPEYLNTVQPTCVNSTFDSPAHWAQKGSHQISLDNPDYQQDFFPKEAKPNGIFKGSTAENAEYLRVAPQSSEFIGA
T5 sequence (Q92918 whole entry): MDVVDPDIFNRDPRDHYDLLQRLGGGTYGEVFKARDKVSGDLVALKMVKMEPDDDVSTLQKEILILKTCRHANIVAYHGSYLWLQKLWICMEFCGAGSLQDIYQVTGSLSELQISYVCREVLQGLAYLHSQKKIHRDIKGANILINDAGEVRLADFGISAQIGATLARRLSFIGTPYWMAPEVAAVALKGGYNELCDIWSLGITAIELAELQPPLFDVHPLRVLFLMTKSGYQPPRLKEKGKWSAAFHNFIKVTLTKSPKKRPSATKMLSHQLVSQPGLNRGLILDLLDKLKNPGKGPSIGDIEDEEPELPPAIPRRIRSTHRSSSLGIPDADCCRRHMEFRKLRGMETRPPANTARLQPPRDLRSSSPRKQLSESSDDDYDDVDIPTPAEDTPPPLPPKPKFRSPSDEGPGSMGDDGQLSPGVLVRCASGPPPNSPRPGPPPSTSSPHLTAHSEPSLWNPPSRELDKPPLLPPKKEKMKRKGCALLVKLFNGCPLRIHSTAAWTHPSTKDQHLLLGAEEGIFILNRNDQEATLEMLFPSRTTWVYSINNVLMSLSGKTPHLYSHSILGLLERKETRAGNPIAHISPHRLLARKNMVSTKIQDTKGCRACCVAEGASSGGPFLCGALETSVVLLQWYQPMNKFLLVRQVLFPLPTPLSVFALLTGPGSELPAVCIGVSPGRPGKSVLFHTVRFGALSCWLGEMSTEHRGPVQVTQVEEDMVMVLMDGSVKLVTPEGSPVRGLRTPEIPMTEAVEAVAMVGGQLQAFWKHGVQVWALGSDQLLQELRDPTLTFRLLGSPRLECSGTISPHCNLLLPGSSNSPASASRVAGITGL
Chain of HASPIN (Q8TF76 whole entry): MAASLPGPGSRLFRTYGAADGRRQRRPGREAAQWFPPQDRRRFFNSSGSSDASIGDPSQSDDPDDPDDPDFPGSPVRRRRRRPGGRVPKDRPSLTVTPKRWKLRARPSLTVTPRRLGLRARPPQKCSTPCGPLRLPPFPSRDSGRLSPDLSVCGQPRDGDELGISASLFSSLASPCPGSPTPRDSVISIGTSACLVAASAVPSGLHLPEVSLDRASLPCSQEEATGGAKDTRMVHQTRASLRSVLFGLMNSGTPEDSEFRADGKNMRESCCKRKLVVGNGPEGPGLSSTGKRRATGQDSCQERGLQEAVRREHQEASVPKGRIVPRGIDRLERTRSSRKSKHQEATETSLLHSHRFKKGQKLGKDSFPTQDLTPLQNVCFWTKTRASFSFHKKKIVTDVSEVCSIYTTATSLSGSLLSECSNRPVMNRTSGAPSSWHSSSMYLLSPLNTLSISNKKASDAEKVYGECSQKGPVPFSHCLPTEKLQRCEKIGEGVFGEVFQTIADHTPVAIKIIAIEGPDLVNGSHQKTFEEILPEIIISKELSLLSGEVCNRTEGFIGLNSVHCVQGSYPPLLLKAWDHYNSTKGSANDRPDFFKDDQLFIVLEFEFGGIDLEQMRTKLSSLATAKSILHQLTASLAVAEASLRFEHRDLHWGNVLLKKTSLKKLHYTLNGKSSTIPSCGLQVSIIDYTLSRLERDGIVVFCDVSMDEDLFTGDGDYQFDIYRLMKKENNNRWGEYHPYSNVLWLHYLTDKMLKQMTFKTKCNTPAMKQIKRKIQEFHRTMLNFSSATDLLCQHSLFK
T2 sequence (P52333 whole entry): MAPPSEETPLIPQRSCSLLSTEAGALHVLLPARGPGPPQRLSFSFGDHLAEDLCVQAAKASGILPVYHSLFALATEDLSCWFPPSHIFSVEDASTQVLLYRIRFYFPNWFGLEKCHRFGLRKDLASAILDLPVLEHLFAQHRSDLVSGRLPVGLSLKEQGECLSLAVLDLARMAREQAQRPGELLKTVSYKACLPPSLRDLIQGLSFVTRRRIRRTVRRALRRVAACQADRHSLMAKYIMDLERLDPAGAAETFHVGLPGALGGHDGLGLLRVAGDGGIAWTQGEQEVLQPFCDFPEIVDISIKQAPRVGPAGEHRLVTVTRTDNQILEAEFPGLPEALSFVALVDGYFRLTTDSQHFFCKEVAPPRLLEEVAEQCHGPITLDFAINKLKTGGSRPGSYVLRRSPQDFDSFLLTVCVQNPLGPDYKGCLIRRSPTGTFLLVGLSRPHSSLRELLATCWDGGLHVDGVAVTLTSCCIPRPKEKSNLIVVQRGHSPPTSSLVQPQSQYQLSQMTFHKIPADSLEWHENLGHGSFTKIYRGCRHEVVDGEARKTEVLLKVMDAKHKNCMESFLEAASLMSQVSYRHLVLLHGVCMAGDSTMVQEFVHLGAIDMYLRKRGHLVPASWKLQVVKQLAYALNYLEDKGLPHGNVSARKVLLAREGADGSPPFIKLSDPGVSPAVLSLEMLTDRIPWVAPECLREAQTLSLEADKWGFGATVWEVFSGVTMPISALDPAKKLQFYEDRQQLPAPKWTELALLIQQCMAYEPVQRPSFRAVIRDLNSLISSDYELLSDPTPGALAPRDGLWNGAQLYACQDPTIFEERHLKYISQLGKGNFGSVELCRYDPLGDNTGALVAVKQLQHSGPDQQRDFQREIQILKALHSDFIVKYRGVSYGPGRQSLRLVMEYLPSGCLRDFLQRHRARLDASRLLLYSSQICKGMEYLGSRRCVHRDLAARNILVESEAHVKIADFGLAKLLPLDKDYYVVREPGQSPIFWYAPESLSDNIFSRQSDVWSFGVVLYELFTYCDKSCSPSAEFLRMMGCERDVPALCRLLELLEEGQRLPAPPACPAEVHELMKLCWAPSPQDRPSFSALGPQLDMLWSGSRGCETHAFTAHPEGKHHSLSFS
T4 sequence (O15111 whole entry): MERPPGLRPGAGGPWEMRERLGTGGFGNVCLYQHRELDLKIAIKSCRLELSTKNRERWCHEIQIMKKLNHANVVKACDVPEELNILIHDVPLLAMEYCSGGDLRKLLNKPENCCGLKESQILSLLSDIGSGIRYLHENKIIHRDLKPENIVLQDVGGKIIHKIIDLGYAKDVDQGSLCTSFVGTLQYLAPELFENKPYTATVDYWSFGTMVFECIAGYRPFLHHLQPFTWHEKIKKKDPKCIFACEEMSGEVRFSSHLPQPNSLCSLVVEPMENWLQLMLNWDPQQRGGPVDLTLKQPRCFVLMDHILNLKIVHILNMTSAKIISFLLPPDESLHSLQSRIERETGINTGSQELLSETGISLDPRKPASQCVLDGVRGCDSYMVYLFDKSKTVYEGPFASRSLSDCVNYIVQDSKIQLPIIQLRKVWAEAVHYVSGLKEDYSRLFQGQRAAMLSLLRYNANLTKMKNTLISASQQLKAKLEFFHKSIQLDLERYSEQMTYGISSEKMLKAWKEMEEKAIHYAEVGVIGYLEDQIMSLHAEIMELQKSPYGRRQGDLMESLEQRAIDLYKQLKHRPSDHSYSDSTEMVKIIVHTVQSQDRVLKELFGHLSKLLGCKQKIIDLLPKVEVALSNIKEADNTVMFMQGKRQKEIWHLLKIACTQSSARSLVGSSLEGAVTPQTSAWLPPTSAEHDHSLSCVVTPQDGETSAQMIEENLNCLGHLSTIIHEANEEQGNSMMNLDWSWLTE

c1ccc2c(c1)Sc1ccccc1N2CCN1CCOCC1 [J54] showed a remaining binding (EGFR(L858R)) of 92%, a remaining binding (PKAC-alpha) of 98% and a remaining binding (RET) of 98%. It also gave a remaining binding (MET(M1250T)) of 67%, a remaining binding (MAP4K5) of 68% and a remaining binding (MARK2) of 99%. It also gave a remaining binding (WNK2) of 100%, a remaining binding [1] of 85% and a remaining binding (FLT3(D835Y)) of 79%. It also gave a remaining binding [2] of 100%, a remaining binding (IKK-alpha) of 100% and a remaining binding (HASPIN) of 94%. The remaining binding (AKT2) was 100%, the remaining binding (PRKG1) was 86% and the remaining binding (HPK1) was 100%. The remaining binding (MKNK1) was 92%, the remaining binding (EPHB1) was 100% and the remaining binding [3] was 97%.
